Key:
Format in all cases: in vivo, rat
OVX female SD rats [1] = experiment: Thymus weight measurement; conditions: for Change in Thymus Weight: at necropsy after 28 days, isoflavone aglycones 20 mg per kg body weight, 17 β-estradiol 1 μg per animal per day, mean ± SD
Source text: (§1) 1) Female SD rats (seven weeks) were procured, and were preliminarily kept for one week. The healthy female SD rats to be used as subjects (eight weeks) were raised in groups with uniform body weight. Rats other than those in the Sham group were ovarectomized (OVX). The Sham group was only laparotomized. After preliminarily keeping for one week after the OVX procedure, the rats were allowed free intake of high-fat feed having the composition shown in Table 2 for a period of 28 days starting on the day following preliminary keeping.
(§2) The rats were also allowed free intake of well water (3 ppm chlorine added). In addition, the environment of the animal facility had constant temperature and humidity of 23±2° C. and 55±10%. The atmosphere conditioning method involved ventilation (15 cycles/h), and the light time was from 8 am to 8 pm. The keeping apparatuses were stainless steel metabolic cages.
(§3) Upon completion of administration on day 28, 24-hour fasting was performed, and the rats were necropsied under ether anesthetization in order to collect blood from the abdominal aorta. Regarding serum cholesterol, measurement of total serum cholesterol, HDL cholesterol, LDL cholesterol and cholesterol ester ratio were carried out, and blood neutral fat (TG), blood free fatty acid (FFA) and leptin were measured using enzymatic methods. In addition, the uterus weight per 100 g body weight was measured for the necropsied females rats. Also, body fat determination was made by measuring the weight of removed posterior abdominal wall fat, mesenteric fat, perirenal fat and periovarian fat per 100 g of body weight. The thymus weights for the necropsied female rats were measured based on the weight per 100 g of body weight.
(§4) The results of measurement for each group were expressed as mean values±standard deviations for each of the measured parameters, and significant differences were determined using Student's t-test. Evaluation was made using the two-sided test, where significance levels were taken as 5 and 1%.

OVX female SD rats [2] = experiment: Body weight measurement in OVX rats on high-fat feed; conditions: 17 β-estradiol 1 μg per animal per day, mean ± SD
Source text: as §1, §2
The body weights of all rats were measured once on days 0, 7, 14, 21 and 28.
(§5) Evaluation was made using the two-sided test, where significance levels were taken as 5 and 1%.

OVX female SD rats [3] = experiment: Overall evaluation of biological activity promotion over all measured parameters; conditions: at an administered amount of 1/4000 relative to isoflavone aglycones
Source text: as §1
Consequently, results were obtained that caused concern over side effects when administered at high dosages.

OVX female SD rats [4] = experiment: Leptin level measurement; conditions: after 28 days administration and 24-hour fasting, isoflavone aglycones 20 mg per kg body weight, 17 β-estradiol 1 μg per animal per day, mean ± SD
Source text: as §1, §2, §3, §4

OVX female SD rats [5] = experiment: Blood neutral fat (TG) measurement; conditions: after 28 days administration and 24-hour fasting, isoflavone aglycones 20 mg per kg body weight, 17 β-estradiol 1 μg per animal per day, mean ± SD
Source text: as §1, §2, §3, §4

OVX female SD rats [6] = experiment: Urine NO2/NO3 measurement (24-hour accumulated urine); conditions: 17 β-estradiol 1 μg per animal per day, mean ± SD
Source text: as §1, §2, §3, §4

OVX female SD rats [7] = experiment: Body fat determination (weight of removed fat); conditions: at necropsy after 28 days, isoflavone aglycones 20 mg per kg body weight, 17 β-estradiol 1 μg per animal per day, mean ± SD
Source text: as §1, §2, §3, §4

OVX female SD rats [8] = experiment: Serum cholesterol measurement; conditions: after 28 days administration and 24-hour fasting, isoflavone aglycones 20 mg per kg body weight, 17 β-estradiol 1 μg per animal per day, mean ± SD; for Cholesterol ester (%): cholesterol ester ratio
Source text: as §1, §2, §3, §5

OVX female SD rats [9] = experiment: Blood free fatty acid (FFA) measurement; conditions: after 28 days administration and 24-hour fasting, isoflavone aglycones 20 mg per kg body weight, 17 β-estradiol 1 μg per animal per day, mean ± SD
Source text: as §1, §2, §3, §4

[10] = day 0, isoflavone aglycones 20 mg per kg body weight in feed
[11] = day 0, isoflavone aglycones 20 mg per kg body weight
[12] = day 7, isoflavone aglycones 20 mg per kg body weight
[13] = day 14, isoflavone aglycones 20 mg per kg body weight
[14] = day 21, isoflavone aglycones 20 mg per kg body weight
[15] = day 28, isoflavone aglycones 20 mg per kg body weight
[16] = day 7, isoflavone aglycones 20 mg per kg body weight in feed
[17] = day 14, isoflavone aglycones 20 mg per kg body weight in feed
[18] = day 21, isoflavone aglycones 20 mg per kg body weight in feed
[19] = day 28, isoflavone aglycones 20 mg per kg body weight in feed

With `C[C@]12CC[C@@H]3c4ccc(O)cc4CC[C@H]3[C@@H]1CC[C@@H]2O` [estradiol, 17 β-estradiol] the “Change in Thymus Weight” value (OVX female SD rats [1]) was 0.112 ± 0.01 g/100 g; body weight, the “Change in Body Weight” value (OVX female SD rats [2]; [10]) was 192.5 ± 7.12 g and the “stimulatory (agonistic) action with respect to biological activity, in words” value (OVX female SD rats [3]) was “high”. For the same molecule, the “Change in Leptin” value (OVX female SD rats [4]) was 0.7 ± 0.28 ng/mL, the “Change in TG (blood neutral fat)” value (OVX female SD rats [5]) was 105.1 ± 5.37 mg/dL and the “Change in NO2/NO3 (urinary)” value (OVX female SD rats [6]; [11]) was 6.1 ± 0.29 µmol. For the same molecule, the “Change in NO2/NO3 (urinary)” value (OVX female SD rats [6]; [12]) was 7.0 ± 0.60 µmol, the “Change in NO2/NO3 (urinary)” value (OVX female SD rats [6]; [13]) was 7.8 ± 0.59 µmol and the “Change in NO2/NO3 (urinary)” value (OVX female SD rats [6]; [14]) was 9.0 ± 0.76 µmol. For the same molecule, the “Change in NO2/NO3 (urinary)” value (OVX female SD rats [6]; [15]) was 9.4 ± 0.39 µmol, the “Body Fat: Mesenteric fat” value (OVX female SD rats [7]) was 2.5 ± 0.19 g/100 g; body weight and the “Body Fat: Periovarian fat” value (OVX female SD rats [7]) was 2.8 ± 0.27 g/100 g; body weight. For the same molecule, the “Body Fat: Perirenal fat” value (OVX female SD rats [7]) was 3.2 ± 0.22 g/100 g; body weight, the “Body Fat: posterior abdominal wall fat” value (OVX female SD rats [7]) was 1.9 ± 0.10 g/100 g; body weight and the “Serum HDL cholesterol” value (OVX female SD rats [8]) was 35.9 ± 3.38 mg/dL. The “Serum LDL cholesterol” value (OVX female SD rats [8]) was 38.2 ± 1.74 mg/dL, the “Serum Total cholesterol” value (OVX female SD rats [8]) was 72.1 ± 3.86 mg/dL and the “Cholesterol ester (%)” value (OVX female SD rats [8]) was 70.7 ± 2.80%. The “Change in FFA (blood free fatty acid)” value (OVX female SD rats [9]) was 362.8 ± 24.41 mg/dL.
With `O=c1c(-c2ccc(O)cc2)coc2cc(O)cc(O)c12` [genistein] the “Change in Thymus Weight” value (OVX female SD rats [1]) was 0.110 ± 0.02 g/100 g; body weight, the “Change in Body Weight” value (OVX female SD rats [2]; [10]) was 197.3 ± 10.18 g and the “Change in Body Weight” value (OVX female SD rats [2]; [16]) was 216.9 ± 8.53 g. The “Change in Body Weight” value (OVX female SD rats [2]; [17]) was 231.9 ± 9.77 g, the “Change in Body Weight” value (OVX female SD rats [2]; [18]) was 249.4 ± 9.81 g and the “Change in Body Weight” value (OVX female SD rats [2]; [19]) was 266.8 ± 8.6 g. For the same molecule, the “Change in Leptin” value (OVX female SD rats [4]) was 1.9 ± 0.25 ng/mL, the “Change in TG (blood neutral fat)” value (OVX female SD rats [5]) was 116.9 ± 9.90 mg/dL and the “Change in NO2/NO3 (urinary)” value (OVX female SD rats [6]; [11]) was 6.1 ± 0.34 µmol. The “Change in NO2/NO3 (urinary)” value (OVX female SD rats [6]; [12]) was 6.4 ± 0.39 µmol, the “Change in NO2/NO3 (urinary)” value (OVX female SD rats [6]; [13]) was 6.3 ± 0.56 µmol and the “Change in NO2/NO3 (urinary)” value (OVX female SD rats [6]; [14]) was 6.2 ± 0.40 µmol. For the same molecule, the “Change in NO2/NO3 (urinary)” value (OVX female SD rats [6]; [15]) was 6.4 ± 0.4 µmol, the “Body Fat: Mesenteric fat” value (OVX female SD rats [7]) was 2.6 ± 0.14 g/100 g; body weight and the “Body Fat: Periovarian fat” value (OVX female SD rats [7]) was 3.0 ± 0.26 g/100 g; body weight. For the same molecule, the “Body Fat: Perirenal fat” value (OVX female SD rats [7]) was 3.7 ± 0.17 g/100 g; body weight, the “Body Fat: posterior abdominal wall fat” value (OVX female SD rats [7]) was 2.8 ± 0.25 g/100 g; body weight and the “Serum LDL cholesterol” value (OVX female SD rats [8]) was 40.6 ± 1.76 mg/dL. The “Serum Total cholesterol” value (OVX female SD rats [8]) was 85.8 ± 2.53 mg/dL and the “Change in FFA (blood free fatty acid)” value (OVX female SD rats [9]) was 400.0 ± 19.01 mg/dL.
For `O=c1c(-c2ccc(O)cc2)coc2cc(O)ccc12` [daidzein], the “thymus weight relative to the comparative group 1 (Sham) and the test group 1 (OVX), in words” value (OVX female SD rats [1]; 28 days) was “increase in weight”, the “Change in Thymus Weight” value (OVX female SD rats [1]) was 0.130 ± 0.02 g/100 g; body weight and the “Change in Body Weight” value (OVX female SD rats [2]; [10]) was 191.0 ± 7.31 g. For the same molecule, the “Change in Body Weight” value (OVX female SD rats [2]; [16]) was 216.1 ± 6.86 g, the “Change in Body Weight” value (OVX female SD rats [2]; [17]) was 230.6 ± 6.58 g and the “Change in Body Weight” value (OVX female SD rats [2]; [18]) was 245.4 ± 7.07 g. For the same molecule, the “Change in Body Weight” value (OVX female SD rats [2]; [19]) was 257.4 ± 7.71 g, the “Change in Leptin” value (OVX female SD rats [4]) was 1.7 ± 0.12 ng/mL and the “Change in TG (blood neutral fat)” value (OVX female SD rats [5]) was 104.8 ± 16.71 mg/dL. The “Change in NO2/NO3 (urinary)” value (OVX female SD rats [6]; [11]) was 6.0 ± 0.53 µmol, the “Change in NO2/NO3 (urinary)” value (OVX female SD rats [6]; [12]) was 6.4 ± 0.54 µmol and the “Change in NO2/NO3 (urinary)” value (OVX female SD rats [6]; [13]) was 6.4 ± 0.43 µmol. For the same molecule, the “Change in NO2/NO3 (urinary)” value (OVX female SD rats [6]; [14]) was 6.6 ± 0.40 µmol, the “Change in NO2/NO3 (urinary)” value (OVX female SD rats [6]; [15]) was 6.0 ± 0.40 µmol and the “Body Fat: Mesenteric fat” value (OVX female SD rats [7]) was 2.8 ± 0.18 g/100 g; body weight. The “Body Fat: Periovarian fat” value (OVX female SD rats [7]) was 3.1 ± 0.17 g/100 g; body weight, the “Body Fat: Perirenal fat” value (OVX female SD rats [7]) was 3.5 ± 0.20 g/100 g; body weight and the “Body Fat: posterior abdominal wall fat” value (OVX female SD rats [7]) was 2.6 ± 0.23 g/100 g; body weight. For the same molecule, the “Serum HDL cholesterol” value (OVX female SD rats [8]) was 42.6 ± 2.25 mg/dL, the “Serum LDL cholesterol” value (OVX female SD rats [8]) was 36.3 ± 3.45 mg/dL and the “Serum Total cholesterol” value (OVX female SD rats [8]) was 81.8 ± 2.57 mg/dL. The “Cholesterol ester (%)” value (OVX female SD rats [8]) was 70.1 ± 3.01% and the “Change in FFA (blood free fatty acid)” value (OVX female SD rats [9]) was 379.2 ± 24.45 mg/dL.

Reference: US20050123633A1, “Biological activity-promoting compositions containing soybean germ-origin isoflavone aglycon” (priority 2002, published 2005)
